Measured values: patent US20050106563A1 (Genesis Biotech Inc., priority 2003, published 2005)
Where no end group is shown, it is not given here.

Tests used:
anti-SARS-CoV sera IgG = type: binding, human
[1] = test system: chicken anti-avian infectious bronchitis virus (IBV) sera; type: binding
[2] = test system: anti-SARS-CoV antibody in human sera; type: binding
[3] = test system: cat anti-feline coronavirus sera; type: binding
[4] = test system: IgM specific to SARS-COV N1; type: binding, human

(HGAIKLDDKD)8K4K2K-βA (also: octameric MAP: 8 copies on K4K2K lysine core with C-terminal βAla) [GA162]
time dependency of antibody binding (time dependent epitopes) (anti-SARS-CoV sera IgG): early (days 7-29)

(RYLRHGKLRP)8K4K2K-βA (also: octameric MAP: 8 copies on K4K2K lysine core with C-terminal βAla) [GA102]
response ratio R/T [1]: 2/3 | serum binding during treatment versus recovery period (inflammation epitopes) [2]: more strongly during the treatment than during the recovery period | response ratio R/T [3]: 8/8

(KKTDEAQPLP)8K4K2K-βA (also: octameric MAP: 8 copies on K4K2K lysine core with C-terminal βAla) [GA170]
cross reaction with chicken anti-IBV antiserum [1]: cross reacted only but weakly | Responder (AT>1, positive)/Total samples (R/T) [2]: 10/10 | Responder/Total samples (R/T) value [2]: 0 | share of group 2 regarded as probable SARS patients (17 of 23 cases) [2]: 74% | response ratio R/T [3]: 0/8 | detection of SARS-COV antibody (IgG) in patient #51 (anti-SARS-CoV sera IgG): can be detected | time dependency of antibody binding (time dependent epitopes) (anti-SARS-CoV sera IgG): immediate early (days 1-6)

(GSITAQPVKI)8K4K2K-βA (also: octameric MAP: 8 copies on K4K2K lysine core with C-terminal βAla) [GA186]
cross reaction with chicken anti-IBV antiserum [1]: cross reacted only but weakly

(KYFKNHTSPD)8K4K2K-βA (also: octameric MAP: 8 copies on K4K2K lysine core with C-terminal βAla) [GA287]
time dependency of antibody binding (time dependent epitopes) (anti-SARS-CoV sera IgG): immediate early (days 1-6)

(RNPNNNAATV)8K4K2K-βA (also: octameric MAP: 8 copies on K4K2K lysine core with C-terminal βAla) [GA152]
cross reaction with chicken anti-IBV antiserum [1]: did not cross react | Responder (AT>1, positive)/Total samples (R/T) [2]: 10/10 | Responder/Total samples (R/T) value [2]: 0 | share of group 2 regarded as probable SARS patients (17 of 23 cases) [2]: 74% | response ratio R/T [3]: 0/8 | detection of SARS-COV antibody (IgM) in patient #51 [4]: can be detected | detection of SARS-COV antibody (IgG) in patient #51 (anti-SARS-CoV sera IgG): can be detected | time dependency of antibody binding (time dependent epitopes) (anti-SARS-CoV sera IgG): immediate early (days 1-6)

(IGYYRRATRR)8K4K2K-βA (also: octameric MAP: 8 copies on K4K2K lysine core with C-terminal βAla) [GA139]
serum binding during treatment versus recovery period (inflammation epitopes) [2]: more strongly during the treatment than during the recovery period

(YNYKYRYLRH)8K4K2K-βA (also: octameric MAP: 8 copies on K4K2K lysine core with C-terminal βAla) [GA101]
response ratio R/T [1]: 3/3 | serum binding during treatment versus recovery period (inflammation epitopes) [2]: more strongly during the treatment than during the recovery period | response ratio R/T [3]: 8/8

(DHIGTRNPNN)8K4K2K-βA (also: octameric MAP on K4K2K lysine core with C-terminal βAla) [GA151]
cross reaction with chicken anti-IBV antiserum [1]: did not cross react | Responder (AT>1, positive)/Total samples (R/T) [2]: 10/10 | Responder/Total samples (R/T) value [2]: 0 | share of group 2 regarded as probable SARS patients (17 of 23 cases) [2]: 74% | AbT [3]: 2.9 | response ratio R/T [3]: 1/8 | detection of SARS-COV antibody (IgM) in patient #51 [4]: can be detected | detection of SARS-COV antibody (IgG) in patient #51 (anti-SARS-CoV sera IgG): can be detected | time dependency of antibody binding (time dependent epitopes) (anti-SARS-CoV sera IgG): immediate early (days 1-6)

LLACLCKHKK (SARS Coronavirus) [GA231]
serum binding during treatment versus recovery period (inflammation epitopes) [2]: more strongly during the treatment than during the recovery period | detection of SARS-COV antibody (IgG) in patient #51 (anti-SARS-CoV sera IgG): can be detected | time dependency of antibody binding (time dependent epitopes) (anti-SARS-CoV sera IgG): immediate early (days 1-6)

(ASLPYGANKE)8K4K2K-βA (also: octameric MAP on K4K2K lysine core with C-terminal βAla) [GA146]
serum binding during treatment versus recovery period (inflammation epitopes) [2]: more strongly during the treatment than during the recovery period

(RINWVTGGIA)8K4K2K-βA (also: octameric MAP: 8 copies on K4K2K lysine core with C-terminal βAla) [GA179]
response ratio R/T [1]: 3/3 | serum binding during treatment versus recovery period (inflammation epitopes) [2]: more strongly during the treatment than during the recovery period | response ratio R/T [3]: 7/8

(NAATVLQLPQ)8K4K2K-βA (also: octameric MAP: 8 copies on K4K2K lysine core with C-terminal βAla) [GA153]
detection of SARS-COV antibody (IgM) in patient #51 [4]: can be detected

(KHWPQIAQFA)8K4K2K-βA (also: octameric MAP: 8 copies on K4K2K lysine core with C-terminal βAla) [GA155]
response ratio R/T [1]: 2/3 | serum binding during treatment versus recovery period (inflammation epitopes) [2]: more strongly during the treatment than during the recovery period | response ratio R/T [3]: 8/8

(PPTEPKKDKK)8K4K2K-βA (also: octameric MAP: 8 copies on K4K2K lysine core with C-terminal βAla) [GA168]
detection of SARS-COV antibody (IgG) in patient #51 (anti-SARS-CoV sera IgG): can be detected | time dependency of antibody binding (time dependent epitopes) (anti-SARS-CoV sera IgG): immediate early (days 1-6)

NYKYRYLRHGKLRPFERDISNVPFS [GA91]
response ratio R/T [3]: 6/8

FVASFRLFAR (SARS Coronavirus) [GA203]
detection of SARS-COV antibody (IgG) in patient #51 (anti-SARS-CoV sera IgG): can be detected | time dependency of antibody binding (time dependent epitopes) (anti-SARS-CoV sera IgG): immediate early (days 1-6)

(APATVCGPKL)8K4K2K-βA (also: octameric MAP on K4K2K lysine core with C-terminal βAla) [GA115]
cross reaction with chicken anti-IBV antiserum [1]: cross reacted only but weakly

(LSPRWYFYYL)8K4K2K-βA (also: octameric MAP: 8 copies on K4K2K lysine core with C-terminal βAla) [GA143]
serum binding during treatment versus recovery period (inflammation epitopes) [2]: more strongly during the treatment than during the recovery period

(GTSWFITQRN)8K4K2K-βA (also: octameric MAP: 8 copies on K4K2K lysine core with C-terminal βAla) [GA129]
AbT [3]: > 1 | response ratio R/T [3]: 5/6

(ASVVNIQKEI)8K4K2K-βA (also: octameric MAP on K4K2K lysine core with C-terminal βAla) [GA291]
time dependency of antibody binding (time dependent epitopes) (anti-SARS-CoV sera IgG): immediate early (days 1-6)

MSRRRLLACL (SARS Coronavirus) [GA230]
detection of SARS-COV antibody (IgG) in patient #51 (anti-SARS-CoV sera IgG): can be detected | time dependency of antibody binding (time dependent epitopes) (anti-SARS-CoV sera IgG): immediate early (days 1-6)

(LRIPVTAEVGSSYFK)8K4K2K-βA (also: octameric MAP: 8 copies on K4K2K lysine core with C-terminal βAla) [GA6, control polypeptide, WSSV VP28 52-66]
response ratio R/T [1]: 1/3 | response ratio R/T [3]: 8/8

(IITTDNTFVS)8K4K2K-βA (also: octameric MAP: 8 copies on K4K2K lysine core with C-terminal βAla) [GA132]
serum binding during treatment versus recovery period (inflammation epitopes) [2]: more strongly during the treatment than during the recovery period

(IAQFAPSASA)8K4K2K-βA (also: octameric MAP: 8 copies on K4K2K lysine core with C-terminal βAla) [GA156]
serum binding during treatment versus recovery period (inflammation epitopes) [2]: more strongly during the treatment than during the recovery period

(FFGMSRIGME)8K4K2K-βA (also: octameric MAP on K4K2K lysine core with C-terminal βAla) [GA158]
response ratio R/T [1]: 3/3 | serum binding during treatment versus recovery period (inflammation epitopes) [2]: more strongly during the treatment than during the recovery period | response ratio R/T [3]: 8/8

(INTNSGPDDQ)8K4K2K-βA (also: octameric MAP: 8 copies on K4K2K lysine core with C-terminal βAla) [GA137]
serum binding during treatment versus recovery period (inflammation epitopes) [2]: more strongly during the treatment than during the recovery period

(GANKEGIVWV)8K4K2K-βA (also: octameric MAP on K4K2K lysine core with C-terminal βAla) [GA147]
response ratio R/T [1]: 1/3 | serum binding during treatment versus recovery period (inflammation epitopes) [2]: more strongly during the treatment than during the recovery period

(LQLPQGTTLP)8K4K2K-βA (also: octameric MAP: 8 copies on K4K2K lysine core with C-terminal βAla) [GA154]
detection of SARS-COV antibody (IgM) in patient #51 [4]: can be detected

(GKMKELSPRW)8K4K2K-βA (also: octameric MAP on K4K2K lysine core with C-terminal βAla) [GA142]
serum binding during treatment versus recovery period (inflammation epitopes) [2]: more strongly during the treatment than during the recovery period

(QRQKKQPTVT)8K4K2K-βA (also: octameric MAP: 8 copies on K4K2K lysine core with C-terminal βAla) [GA172]
response ratio R/T [1]: 3/3 | response ratio R/T [3]: 8/8

(RVDFCGKGYH)8K4K2K-βA (also: octameric MAP: 8 copies on K4K2K lysine core with C-terminal βAla) [GA117]
response ratio R/T [1]: 1/3 | serum binding during treatment versus recovery period (inflammation epitopes) [2]: more strongly during the treatment than during the recovery period | response ratio R/T [3]: 6/8

(GNCDVVIGII)8K4K2K-βA (also: octameric MAP: 8 copies on K4K2K lysine core with C-terminal βAla) [GA134]
serum binding during treatment versus recovery period (inflammation epitopes) [2]: more strongly during the treatment than during the recovery period

(QPTVTLLPAA)8K4K2K-βA (also: octameric MAP: 8 copies on K4K2K lysine core with C-terminal βAla) [GA173]
cross reaction with chicken anti-IBV antiserum [1]: cross reacted only but weakly
